*1 amine or outer side, *2 acyl side, *3 side chain or, on linkers, in order; H or OH if unused. Where no end group is shown, it is not given here. [ ]: non-standard residue; d: D form. The star is where a group is joined. MeYm = N-methyl-p-methoxyphenylalanine, COc1ccc(C[C@@H](C(=O)[*:2])N(C)[*:1])cc1; NMeY = CN[C@@H](Cc1ccc(O)cc1)C(=O)O; NMeF = CN[C@@H](Cc1ccccc1)C(=O)O; NMeNle = CCCC[C@H](NC)C(=O)O; NMeNva = CCC[C@H](NC)C(=O)O; NMeV = CN[C@H](C(=O)O)C(C)C; NMeS = CN[C@@H](CO)C(=O)O; NMeA = CN[C@@H](C)C(=O)O; Sar = CNCC(=O)O; For = O=C*
Tested on: FIT system (reconstituted E. coli cell-free translation system)
Test: In vitro translation in FIT system, peptide expression level by tricine-SDS-PAGE autoradiography
Format: biochemical
Details: mRNA14, 9 different ^MeAAs; control translation using 20 pAAs; FIG. 6d, 6e

## P14: 32-mer model peptide composed of 9 respectively different ^MeAAs and 14 pAAs, translated from mRNA14 (For-MKKK[NMeS]HM[Sar][NMeV]TE[NMeNle]S[NMeY][NMeA]QN[MeYm]GW[NMeNva]R[NMeF]PDYKDDDDK)
  Expression efficiency relative to the control: 34%
